In the test the target is T1, full length human wildtype Btk (Homo sapiens, UniProt Q06187).
T1 construct: V5 (C); 6xHis (C); made in house; host or cells: Sf9 insect cells (baculovirus, pFastBac / Bac-to-Bac)
Nature of the test: Biochemical Btk Assay (time-resolved fluorescence kinase assay). The note with it: 40 μM ATP, 1 hour at room temperature; read-out: IC50 value in the Btk biochemical assay of Example 7. The method, then: A generalized procedure for one standard biochemical Btk Kinase Assay used to test compounds disclosed in this application is as follows.
A master mix minus Btk enzyme is prepared containing 1× Cell Signaling kinase buffer (25 mM Tris-HCl, pH 7.5, 5 mM […]-glycerophosphate, 2 mM dithiothreitol, 0.1 mM Na3VO4, 10 mM MgCl2), 0.5 μM Promega PTK Biotinylated peptide substrate 2, and 0.01% BSA. A master mix plus Btk enzyme is prepared containing 1× Cell Signaling kinase buffer, 0.5 μM PTK Biotinylated peptide substrate 2, 0.01% BSA, and 100 ng/well (0.06 mU/well) Btk enzyme. Btk enzyme is prepared as follows: full length human wildtype Btk (accession number NM-000061) with a C-terminal V5 and 6× His tag was subcloned into pFastBac vector for making baculovirus carrying this epitope-tagged Btk. […] A quantity of 1.25 μL of compounds in 5% DMSO is transferred to a 96-well ½ area Costar polystyrene plate. […] A quantity of 18.75 μL of master mix minus enzyme (as a negative control) and master mix plus enzyme is transferred to appropriate wells in 96-well ½ area costar polystyrene plate. […] The plate is read using time-resolved fluorescence with a Perkin Elmer Envision using excitation filter 330 nm, emission filter 665 nm, and 2nd emission filter 615 nm. IC50 values are subsequently calculated.

Molecules are shown by their SMILES. Some results are limits rather than exact numbers.

By IC50 is commonly meant the concentration needed to halve the response being measured.

T1 sequence (Q06187 whole entry): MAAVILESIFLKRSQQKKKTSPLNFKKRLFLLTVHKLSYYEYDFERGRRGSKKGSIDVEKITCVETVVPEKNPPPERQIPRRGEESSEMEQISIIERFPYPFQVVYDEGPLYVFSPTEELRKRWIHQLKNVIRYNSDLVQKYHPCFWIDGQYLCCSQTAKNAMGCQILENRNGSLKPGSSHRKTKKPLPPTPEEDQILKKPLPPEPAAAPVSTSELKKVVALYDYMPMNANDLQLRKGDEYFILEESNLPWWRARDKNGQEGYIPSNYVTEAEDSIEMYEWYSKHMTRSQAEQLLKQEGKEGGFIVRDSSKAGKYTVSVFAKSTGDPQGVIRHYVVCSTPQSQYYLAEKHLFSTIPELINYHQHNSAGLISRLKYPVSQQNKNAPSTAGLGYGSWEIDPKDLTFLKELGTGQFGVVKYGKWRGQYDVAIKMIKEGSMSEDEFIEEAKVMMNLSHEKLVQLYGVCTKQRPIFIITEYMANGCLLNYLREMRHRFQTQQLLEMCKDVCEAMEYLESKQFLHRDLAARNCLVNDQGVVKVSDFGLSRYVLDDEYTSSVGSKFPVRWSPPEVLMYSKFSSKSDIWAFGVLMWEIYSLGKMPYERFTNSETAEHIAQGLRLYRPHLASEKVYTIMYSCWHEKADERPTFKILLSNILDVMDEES

Turning to `CC(C)(C)c1ccc(C(=O)Nc2cccc(-c3cn4ccnc4c(Nc4ccc5[nH]ncc5c4)n3)c2)cc1` [Example 6], the IC50 is below 1 µM.
